How the values were obtained:
CDK9/CycT1 = target: T1, CDK9/CycT1 (Homo sapiens, UniProt P50750); assay: CDK9/CycT1 high ATP kinase assay (TR-FRET, 2 mM ATP); assay type: biochemical; details: 2 mM ATP (high ATP); median; read-out: CDK9/CyclinT1, 2 mM ATP (high ATP), IC50 (median)
T1 construct: Recombinant full-length His-tagged human CDK9 and CycT1; purchased Life Technologies PV4131; host or cells: insect cells
Summary of the method: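 Full-length His-tagged human CDK9/CycT1 (insect cell, ~0.5 μg/mL) preincubated 15 min at 22 °C with compound in Tris pH 8.0, MgCl2, DTT buffer before reaction with biotinylated peptide substrate at high ATP (2 mM).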

CDK12/CycK = CDK12/CycK (Homo sapiens, UniProt Q9NYV4); assay: CDK12/CycK high ATP kinase assay (TR-FRET, 2 mM ATP); assay type: biochemical; details: 2 mM ATP (high ATP); median; read-out: CDK12/CyclinK, 2 mM ATP (high ATP), IC50-[mol/l] (median)
Summary of the method: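 His-tagged human CDK12/CycK (~0.75 nM) pre-incubated 15 min with compound, then 60 min at 22 °C with 2 mM ATP and 1 µM biotinylated peptide (HEPES pH 7.5, 20 mM MgCl2). EDTA stop; phospho-Ser62 antibody/Eu anti-rabbit and streptavidin-XL665 TR-FRET, 665/620 nm ratio normalised to give IC50.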

Sequence of CDK12/CycK (Q9NYV4 with tags, fused parts or gaps): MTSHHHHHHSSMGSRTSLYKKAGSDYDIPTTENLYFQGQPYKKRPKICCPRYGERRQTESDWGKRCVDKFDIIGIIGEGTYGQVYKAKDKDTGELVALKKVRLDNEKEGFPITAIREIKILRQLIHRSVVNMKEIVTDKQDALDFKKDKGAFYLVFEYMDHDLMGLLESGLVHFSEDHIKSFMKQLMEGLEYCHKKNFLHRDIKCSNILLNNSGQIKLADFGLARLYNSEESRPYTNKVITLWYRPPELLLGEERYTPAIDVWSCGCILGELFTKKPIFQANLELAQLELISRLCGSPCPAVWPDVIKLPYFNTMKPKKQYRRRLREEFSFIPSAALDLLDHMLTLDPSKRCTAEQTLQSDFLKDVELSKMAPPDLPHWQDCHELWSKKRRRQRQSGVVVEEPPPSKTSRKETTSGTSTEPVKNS
Sequence of CDK12/CycK (O75909 1-300 partner limits assumed): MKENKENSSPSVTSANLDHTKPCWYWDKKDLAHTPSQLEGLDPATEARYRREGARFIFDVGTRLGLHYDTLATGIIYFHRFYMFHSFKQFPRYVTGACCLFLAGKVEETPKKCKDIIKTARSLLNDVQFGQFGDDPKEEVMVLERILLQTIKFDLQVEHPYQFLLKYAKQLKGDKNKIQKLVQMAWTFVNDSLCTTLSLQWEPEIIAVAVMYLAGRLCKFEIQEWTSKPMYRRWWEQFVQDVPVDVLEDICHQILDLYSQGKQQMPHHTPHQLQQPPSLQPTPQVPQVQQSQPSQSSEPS
T1 sequence (P50750 whole entry): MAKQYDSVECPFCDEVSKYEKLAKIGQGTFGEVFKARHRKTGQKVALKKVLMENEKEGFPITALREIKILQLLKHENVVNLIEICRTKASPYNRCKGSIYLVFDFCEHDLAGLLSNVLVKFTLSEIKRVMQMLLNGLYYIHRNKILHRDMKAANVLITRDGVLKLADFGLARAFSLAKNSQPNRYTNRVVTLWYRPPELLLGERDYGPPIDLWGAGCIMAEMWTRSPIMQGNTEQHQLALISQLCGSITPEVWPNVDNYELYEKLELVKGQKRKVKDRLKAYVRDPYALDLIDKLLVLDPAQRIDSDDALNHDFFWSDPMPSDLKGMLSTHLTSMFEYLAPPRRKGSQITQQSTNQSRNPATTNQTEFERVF
T1 sequence (O60563 whole entry partner): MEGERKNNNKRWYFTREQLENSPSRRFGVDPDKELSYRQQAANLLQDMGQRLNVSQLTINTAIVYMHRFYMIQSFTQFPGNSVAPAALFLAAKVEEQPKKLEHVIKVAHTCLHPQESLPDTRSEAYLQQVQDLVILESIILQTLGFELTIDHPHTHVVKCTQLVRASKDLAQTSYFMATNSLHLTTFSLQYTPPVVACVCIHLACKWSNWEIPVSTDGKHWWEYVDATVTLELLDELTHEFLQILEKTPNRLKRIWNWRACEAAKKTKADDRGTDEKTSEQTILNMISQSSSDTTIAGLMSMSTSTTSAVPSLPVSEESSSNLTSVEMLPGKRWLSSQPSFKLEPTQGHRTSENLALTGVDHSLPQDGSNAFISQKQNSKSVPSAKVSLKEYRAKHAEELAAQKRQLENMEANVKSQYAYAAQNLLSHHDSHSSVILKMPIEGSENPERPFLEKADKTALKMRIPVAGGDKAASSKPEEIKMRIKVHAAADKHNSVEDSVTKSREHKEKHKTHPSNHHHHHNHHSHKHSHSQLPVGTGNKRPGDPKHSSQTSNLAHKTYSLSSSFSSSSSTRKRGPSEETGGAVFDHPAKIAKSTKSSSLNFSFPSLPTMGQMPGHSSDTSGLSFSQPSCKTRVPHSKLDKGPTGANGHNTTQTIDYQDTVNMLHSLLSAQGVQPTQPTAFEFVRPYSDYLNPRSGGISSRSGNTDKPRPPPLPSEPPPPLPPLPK

IC50 (CDK9/CycT1) [µM]	IC50 (CDK12/CycK) [µM]	Compound
> 20	5.96	FC(F)(F)Cc1cnn2c(NCc3nc4cc(Cl)c(Cl)cc4[nH]3)nc(N3CCOCC3)nc12 [Example 302, N-[(5,6-dichloro-1H-benzimidazol-2-yl)methyl]-2-(morpholin-4-yl)-8-(2,2,2-trifluoroethyl)pyrazolo[1,5-a][1,3,5]triazin-4-amine]
> 20	6.39	FC(F)(F)Cc1cnn2c(NCc3nc4cc(Cl)ccc4[nH]3)nc(N3CCOCC3)nc12 [Example 299, N-[(5-chloro-1H-benzimidazol-2-yl)methyl]-2-(morpholin-4-yl)-8-(2,2,2-trifluoroethyl)pyrazolo[1,5-a][1,3,5]triazin-4-amine]
> 20	> 20	Fc1ccc2[nH]c(CNc3nc(N4CCOCC4)nc4c(C5CCOCC5)cnn34)nc2c1F [Example 276, N-[(4,5-difluoro-1H-benzimidazol-2-yl)methyl]-2-(morpholin-4-yl)-8-(oxan-4-yl)pyrazolo[1,5-a][1,3,5]triazin-4-amine]
9.27	0.829	CN(CC(C)(C)O)c1nc(NCc2nc3c(F)cccc3[nH]2)n2ncc(C3CC3)c2n1 [Example 295, 1-[(8-cyclopropyl-4-{[(4-fluoro-1H-benzimidazol-2-yl)methyl]amino}pyrazolo[1,5-a][1,3,5]triazin-2-yl)(methyl)amino]-2-methylpropan-2-ol]
> 20	1.57	Fc1cc2nc(CNc3nc(N4CCOCC4)nc4c(C5CC5)cnn34)[nH]c2cc1Cl [Example 307, N-[(6-chloro-5-fluoro-1H-benzimidazol-2-yl)methyl]-8-cyclopropyl-2-(morpholin-4-yl)pyrazolo[1,5-a][1,3,5]triazin-4-amine]
> 20	> 20	CN1CCN(c2nc(NCc3nc4cc(F)c(F)cc4[nH]3)n3ncc(C4CC4)c3n2)CC1 [Example 311, 8-cyclopropyl-N-[(5,6-difluoro-1H-benzimidazol-2-yl)methyl]-2-(4-methylpiperazin-1-yl)pyrazolo[1,5-a][1,3,5]triazin-4-amine]
> 20	> 19.8	CC1(N)CCN(c2nc(NCc3nc4ccccc4[nH]3)n3ncc(Br)c3n2)CC1 [Example 290, 2-(4-amino-4-methylpiperidin-1-yl)-N-[(1H-benzimidazol-2-yl)methyl]-8-bromopyrazolo[1,5-a][1,3,5]triazin-4-amine]
> 20	14	FC1(F)CC1c1cnn2c(NCc3nc4ccccc4[nH]3)nc(N3CCOCC3)nc12 (stereo not drawn) [Example 279, N-[(1H-benzimidazol-2-yl)methyl]-8-(2,2-difluorocyclopropyl)-2-(morpholin-4-yl)pyrazolo[1,5-a][1,3,5]triazin-4-amine]
> 20	0.979	CN(CC(C)(C)O)c1nc(NCc2nc3cc(F)c(Cl)cc3[nH]2)n2ncc(C3CC3)c2n1 [Example 317, 1-[(4-{[(6-chloro-5-fluoro-1H-benzimidazol-2-yl)methyl]amino}-8-cyclopropylpyrazolo[1,5-a][1,3,5]triazin-2-yl)(methyl)amino]-2-methylpropan-2-ol]
> 20	> 20	CCNC1CCN(c2nc(NCc3nc4ccccc4[nH]3)n3ncc(Br)c3n2)CC1 [Example 300]

The remaining lines, values behind:

Compound	IC50 (CDK9/CycT1) [µM]	IC50 (CDK12/CycK) [µM]
Brc1cnn2c(NCc3nc4ccccc4[nH]3)nc(N3C[C@H]4CC[C@@H]3CN4)nc12 (single isomer, unassigned) [Example 316, N-[(1H-benzimidazol-2-yl)methyl]-8-bromo-2-{[1R or S-(1R*4R*)]-2,5-diazabicyclo[2.2.2]octan-2-yl}pyrazolo[1,5-a][1,3,5]triazin-4-amine]	12.9	2.92
Cc1ccnc2[nH]c(CNc3nc(N4CCOCC4)nc4c(Br)cnn34)nc12 [Example 20, 8-bromo-N-[(7-methyl-3H-imidazo[4,5-b]pyridin-2-yl)methyl]-2-(morpholin-4-yl)pyrazolo[1,5-a][1,3,5]triazin-4-amine]	9.22	1.75
CC1CN(C)CCN1c1nc(NCc2nc3ccccc3[nH]2)n2ncc(Br)c2n1 (single isomer, unassigned; enantiomer 1) [Example 260, N-(1H-benzimidazol-2-ylmethyl)-8-bromo-2-[(2R or S)-2,4-dimethylpiperazin-1-yl]pyrazolo[1,5-a][1,3,5]triazin-4-amine (Enantiomer 1)]	> 20	12.2
Fc1ccc2[nH]c(CNc3nc(N4CCOCC4)nc4c(C(F)(F)F)cnn34)nc2c1 [Example 273, N-[(5-fluoro-1H-benzimidazol-2-yl)methyl]-2-(morpholin-4-yl)-8-(trifluoromethyl)pyrazolo[1,5-a][1,3,5]triazin-4-amine]	> 20	0.983
c1ccc2[nH]c(CNc3nc(N4C[C@@H]5CCCN[C@@H]5C4)nc4c(C5CC5)cnn34)nc2c1 [Example 249, N-[(1H-benzimidazol-2-yl)methyl]-8-cyclopropyl-2-[(4aS,7aS)-octahydro-6H-pyrrolo[3,4-b]pyridin-6-yl]pyrazolo[1,5-a][1,3,5]triazin-4-amine]	> 20	> 17
COc1ccc2[nH]c(CNc3nc(N4CCOCC4)nc4c(C(F)(F)F)cnn34)nc2c1 [Example 257, N-[(5-methoxy-1H-benzimidazol-2-yl)methyl]-2-(morpholin-4-yl)-8-(trifluoromethyl)pyrazolo[1,5-a][1,3,5]triazin-4-amine]	> 20	0.117
N[C@H]1[C@@H]2C[C@H]1CN(c1nc(NCc3nc4ccccc4[nH]3)n3ncc(Br)c3n1)C2 [Example 288, 2-[(1R,5S,6r)-6-amino-3-azabicyclo[3.1.1]heptan-3-yl]-N-[(1H-benzimidazol-2-yl)methyl]-8-bromopyrazolo[1,5-a][1,3,5]triazin-4-amine]	> 20	3.38
Brc1cnn2c(NCc3nc4cccnc4[nH]3)nc(N3CCNCC3)nc12.O=CO [Example 19, 8-bromo-N-[(3H-imidazo[4,5-b]pyridin-2-yl)methyl]-2-(piperazin-1-yl)pyrazolo[1,5-a][1,3,5]triazin-4-amine formic acid salt]	> 20	11.5
N[C@@H]1[C@@H]2C[C@H]1CN(c1nc(NCc3nc4ccccc4[nH]3)n3ncc(Br)c3n1)C2 [Example 289, 2-[(1R,5S,6s)-6-amino-3-azabicyclo[3.1.1]heptan-3-yl]-N-[(1H-benzimidazol-2-yl)methyl]-8-bromopyrazolo[1,5-a][1,3,5]triazin-4-amine]	> 20	7
CNC1CCN(c2nc(NCc3nc4ccccc4[nH]3)n3ncc(Br)c3n2)CC1 [Example 272, N-[(1H-benzimidazol-2-yl)methyl]-8-bromo-2-[4-(methylamino)piperidin-1-yl]pyrazolo[1,5-a][1,3,5]triazin-4-amine]	> 20	> 20
FC(F)(F)Cc1cnn2c(NCc3nc4ccccc4[nH]3)nc(N3CCOCC3)nc12.O=CO [Example 265, formic acid-N-[(1H-benzimidazol-2-yl)methyl]-2-(morpholin-4-yl)-8-(2,2,2-trifluoroethyl)pyrazolo[1,5-a][1,3,5]triazin-4-amine (1/1)]	> 20	> 16.7
Brc1cnn2c(NCc3nc4ccccc4[nH]3)nc(N3CC4CCNC4C3)nc12 (stereo not drawn) [Example 271, 2-(2,3,3a,4,6,6a-hexahydro-1H-pyrrolo[2,3-c]pyrrol-5-yl)-N-(1H-benzimidazol-2-ylmethyl)-8-bromo-pyrazolo[1,5-a][1,3,5]triazin-4-amine]	> 20	> 20
Brc1cnn2c(NCc3nc4ccccc4[nH]3)nc(N3C[C@@H]4CN[C@@H]4C3)nc12.O=C(O)C(F)(F)F [Example 267, trifluoroacetic acid-N-[(1H-benzimidazol-2-yl)methyl]-8-bromo-2-[(1S,5S)-3,6-diazabicyclo[3.2.0]heptan-3-yl]pyrazolo[1,5-a][1,3,5]triazin-4-amine (1/1)]	> 20	> 20
N[C@H]1CN(c2nc(NCc3nc4ccccc4[nH]3)n3ncc(Br)c3n2)CC12CC2 [Example 259, 2-[(7R)-7-amino-5-azaspiro[2.4]heptan-5-yl]-N-[(1H-benzimidazol-2-yl)methyl]-8-bromopyrazolo[1,5-a][1,3,5]triazin-4-amine]	7.37	2.59
Brc1cnn2c(NCc3nc4c([nH]3)CCCC4)nc(N3CCOCC3)nc12 [Example 21, 8-bromo-2-(morpholin-4-yl)-N-[(4,5,6,7-tetrahydro-1H-benzimidazol-2-yl)methyl]pyrazolo[1,5-a][1,3,5]triazin-4-amine]	> 20	9.64
Brc1cnn2c(NCc3nnc(-c4ccccc4)[nH]3)nc(N3CCOCC3)nc12 [Example 24, 8-bromo-2-(morpholin-4-yl)-N-[(5-phenyl-4H-1,2,4-triazol-3-yl)methyl]pyrazolo[1,5-a][1,3,5]triazin-4-amine]	3.06	4.39
N[C@@H]1CN(c2nc(NCc3nc4ccccc4[nH]3)n3ncc(Br)c3n2)CC12CC2 [Example 251, 2-[(7S)-7-amino-5-azaspiro[2.4]heptan-5-yl]-N-[(1H-benzimidazol-2-yl)methyl]-8-bromopyrazolo[1,5-a][1,3,5]triazin-4-amine]	> 20	0.972
